Each structure is given as a SMILES string. Activity calls are given as the source filed them. No cut-off for these calls is given here.

Target in one experiment: not listed separately
The experiment in a line: Inhibition of Leishmania major dihydroorotate dehydrogenase by isothermal titration calorimetry. Particulars: read-out: Ki(app). On the technique in general: In ITC the heat of successive injections is recorded.
Regarding `Nc1c(C(=O)O)[nH]c(=O)[nH]c1=O`, the Ki is 82.8 µM. Still for that read-out and setting: then `O=C(O)c1[nH]c(=O)[nH]c(=O)c1[N+](=O)[O-]`, with 213 µM.

Target in another experiment: not listed separately
Description: (§1) Inhibition of Trypanosoma cruzi dihydroorotate dehydrogenase by isothermal titration calorimetry. The conditions noted are these: read-out: Ki(app).
As to `O=C(O)c1[nH]c(=O)[nH]c(=O)c1F`, the Ki was 19.3 µM.

Take `Nc1c(C(=O)O)[nH]c(=O)[nH]c1=O`: the Ki was determined as 94.8 µM. Still for that read-out and setting: to `O=C(O)c1nc(=O)[nH]c(=O)[nH]1` [OTERACIL] belongs 21.7 µM; to `O=C(O)c1[nH]c(=O)[nH]c(=O)c1[N+](=O)[O-]`, 139 µM; to `CN(C)Cc1c(C(=O)O)[nH]c(=O)[nH]c1=O`, 300 µM. Still for that read-out and setting: to `O=C(O)c1cc(=O)[nH]c(=O)[nH]1` [OROTIC ACID] belongs 72.2 µM.

The next experiment relates to Trypanosoma cruzi. Described as §1.
Details: not given
On to `CCCCOC(=O)c1cc(O)nc(O)n1`, for which the “Ki(app)” value is “inactive”. For `O=C1OCc2c1[nH]c(=O)[nH]c2=O`, the “Ki(app)” value was “inactive”. Regarding `O=c1[nH]c(=O)c2nn[nH]c2[nH]1`, the “Ki(app)” value is “inactive”. Consider `Oc1nc(O)c2nc(O)[nH]c2n1`, for which the “Ki(app)” value was “inactive”.
